# Data from patent publication US9725477B2, “Platinum compounds of malonic acid derivative having leaving group containing amino or alkylamino” (BEIJING FSWELCOME TECHNOLOGY DEVELOPMENT CO., LTD, priority 2012, dated 2017).
# Counter-ions that a name gives are not always drawn. Like-named read-outs stand apart in the source and are kept apart here.
# Assays:
# [1] = system: normal mice; test: in vivo; details: Table 3; mice, single intravenous administration, 14 days observation
# Description: (§1) Kunming mice with 4˜6 weeks old and 18 g˜22 g by weight were taken, 50% males and 50% females. […] The condition of mortality and toxicity were observed after administration. Totally observing for 14 days, LD50 value was calculated using Bliss method according to the mortality.
# [2] = system: Breast cancer MCF-7; test: MTT cytotoxicity, breast cancer MCF-7; assay type: cell-based; details: Breast cancer MCF-7, MTT, n = 6
# [3] = system: Breast cancer MCF-7 cisplatin resistance strain; test: MTT cytotoxicity, breast cancer MCF-7 cisplatin resistance strain; assay type: cell-based; details: n = 6
# [4] = system: Lung cancer A549; test: MTT cytotoxicity, lung cancer A549; details: read-out: cytotoxicity IC50; Lung cancer A549, MTT, n = 6, Table 4
# Description: Cell morphologies were observed after being cultivated for 24 hours.
# [5] = system: Lung cancer H292; test: MTT cytotoxicity, lung cancer H292; assay type: cell-based
# [6] = system: Alveolar epithelial cells BEAS-2B; test: MTT cytotoxicity, alveolar epithelial cells BEAS-2B; assay type: cell-based
# [7] = system: Lung cancer Lewis; test: MTT cytotoxicity, lung cancer Lewis; assay type: cell-based
# [8] = system: colon cancer SW480; test: MTT cytotoxicity, colon cancer SW480; assay type: cell-based
# [9] = system: Testis cell ST; test: MTT cytotoxicity, testis cell ST; assay type: cell-based; details: n = 6
# [10] = system: gastric cancer MGC803; test: MTT cytotoxicity, gastric cancer MGC803; assay type: cell-based; details: n = 6
# [11] = system: Esophagus cancer ECA109; test: MTT cytotoxicity, esophagus cancer ECA109; assay type: cell-based; details: n = 6
# [12] = existing platinum drugs, background section; cited from earlier work
# [13] = Solubility in water
# [14] = in vivo; details: both, Kunming, mouse, in vivo, iv
# Description: as §1
# [15] = MTT cytotoxicity, alveolar epithelial cells BEAS-2B; assay type: cell-based; details: human, BEAS-2B alveolar epithelial cells; Alveolar epithelial cells BEAS-2B, MTT, n = 6
# [16] = MTT cytotoxicity, testis cell ST; assay type: cell-based; details: pig, ST testis cells, n = 6
# [17] = Lung cancer H292, MTT, n = 6, read-out: cytotoxicity IC50
# [18] = Alveolar epithelial cells BEAS-2B, MTT, n = 6, read-out: cytotoxicity IC50
# [19] = Lung cancer Lewis, MTT, n = 6, read-out: cytotoxicity IC50
# [20] = colon cancer SW480, MTT, n = 6, read-out: cytotoxicity IC50
# [21] = compound of the example (salt form) in water
compound,measurement,setting,value
"N.N.O=C([O-])C1(C(=O)[O-])CCC1.[Pt+2] [Carboplatin, cis-1,1-cyclobutanedicarboxylatodiamminoplatinum, reference compound]",LD50 vALUE,[1],0.336 mmol/kg
same,IC50,[2],103 µM
same,IC50,[3],255 µM
same,IC50,[4],232 µM
same,IC50,[5]; [17],55 µM
same,IC50,[6]; [18],37 µM
same,IC50,[7]; [19],38 µM
same,IC50,[8]; [20],87 µM
same,IC50,[9],195 µM
same,IC50,[10],625 µM
same,IC50,[11],52 µM
same,solubility,[12],17.8 mg/mL
"CCN(CC)CCCCC1C(=O)[O][Pt]2([NH]C3CCCC3[NH]2)[O]C1=O.O=P(O)(O)O (racemic) [Compound 14, 2-(4-diethylaminobutyl)-malonate•cis-(1,2-trans-cyclopentanediamine) platinum (II) phosphate]",LD50 vALUE,[1],0.866 mmol/kg
same,IC50,[5]; [17],12 µM
same,IC50,[6]; [18],5 µM
same,IC50,[7]; [19],36 µM
same,IC50,[8]; [20],17 µM
same,solubility,[13]; [21],more than 300 mg/ml
"CN(C)C1CC(C2C(=O)[O][Pt]([NH2])([NH2])[O]C2=O)C1 (stereo not drawn) [Compound 6, 2-(3-dimethylaminocyclobutyl)-malonate•cis-diamine platinum (II) mesylate]",LD50,[14],756 µmol/kg
same,IC50,[15],3 µM
same,solubility,[13]; water,> 300 mg/mL
"CCN(CC)CCCCC1C(=O)[O][Pt]2([NH]C3CCCCC3[NH]2)[O]C1=O.Cc1ccc(S(=O)(=O)O)cc1 (racemic) [Compound 3, 2-(4-diethylaminobutyl)-malonate•cis-(1,2-trans-cyclohexanediamine) platinum (II) tosilate]",LD50 vALUE,[1],0.815 mmol/kg
same,IC50,[2],7 µM
same,IC50,[3],21 µM
same,IC50,[4],8 µM
same,IC50,[5]; [17],6 µM
"CCN(CC)CC(C)CCC1C(=O)[O][Pt]([NH2])([NH2])[O]C1=O (stereo not drawn) [Compound 8, 2-(3-methyl-4-diethylaminobutyl)-malonate•cis-diamine platinum (II) acetate]",LD50,[14],801 µmol/kg
same,IC50,[15],5 µM
same,solubility,[13]; water,> 300 mg/mL
"CCN(CC)CCCCC1C(=O)[O][Pt]([NH2])([N]2CCCCC2)[O]C1=O (stereo not drawn) [Compound 28, 2-(4-diethylaminobutyl)-malonate•cis-ammonia•piperidine platinum (II) acetate]",LD50 at 14 days,[14],725 µmol/kg
same,IC50,[16],61 µM
same,solubility,[13]; water,> 300 mg/mL
"2-(4-ethyl aminobutyl)-malonate•cis-(1, 2-trans-cyclohexanediamine) platinum (II) phosphate [Compound 12]",LD50 vALUE,[1],0.729 mmol/kg
same,IC50,[5],6 µM
same,IC50,[6],8 µM
same,IC50,[7],18 µM
same,IC50,[8],18 µM
2-(4-di-n-propylaminobutyl)-malonate•cis-diamine platinum (II) phosphate [Compound 7],LD50 vALUE,[1],0.778 mmol/kg
same,IC50,[5],4 µM
same,IC50,[6],4 µM
same,IC50,[7],21 µM
same,IC50,[8],10 µM
"NCCCCC1C(=O)[O][Pt]2([NH]C3CCCCC3[NH]2)[O]C1=O.O=P(O)(O)O (racemic) [Compound 11, 2-(4-aminobutyl)-malonate•cis-(1,2-trans-cyclohexanediamine) platinum (II) phosphate]",LD50 vALUE,[1],0.803 mmol/kg
same,IC50,[5],5 µM
same,IC50,[6],2 µM
same,IC50,[7],49 µM
same,IC50,[8],21 µM
"CCN(CC)CCCCC1C(=O)[O][Pt]2([NH]CC3CCC3C[NH]2)[O]C1=O.O=P(O)(O)O (racemic) [Compound 22, 2-(4-diethylaminobutyl)-malonate•cis-1,4-(trans-2,3-cyclobutyl)-butanediamine platinum (II) phosphate]",IC50,[5]; [17],5 µM
same,IC50,[9],14 µM
same,IC50,[10],7 µM
same,IC50,[11],102 µM
same,solubility,[13]; [21],more than 300 mg/ml
"CCN(CC)CCCCC1C(=O)[O][Pt]([NH2])([NH2])[O]C1=O [Compound 1, 2-(4-diethylaminobutyl)-malonate•cis-diamine platinum (II) acetate]",LD50,[14],746 µmol/kg
same,solubility,[13]; water,> 300 mg/mL
"CCN(CC)CCCCC1C(=O)[O][Pt][O]C1=O.NC1CCC(N)CC1.O=P(O)(O)O [Compound 23, 2-(4-diethylaminobutyl)-malonate•cis-1,4-cyclohexanediamine platinum (II) phosphate]",IC50,[5]; [17],14 µM
same,IC50,[9],8 µM
same,IC50,[10],5 µM
same,IC50,[11],66 µM
same,solubility,[13]; [21],more than 300 mg/ml
"[NH2][Pt]1([NH2])[O]C(=O)C(CCCCN2CCCC2)C(=O)[O]1 [Compound 5, 2-(4-(1-tetrahydropyrrolidinyl)-butyl)-malonate•cis-diamine platinum (II) phosphate]",LD50,[14],845 µmol/kg
same,IC50,[15],2 µM
same,solubility,[13]; water,> 300 mg/mL
"Cc1ccc(S(=O)(=O)O)cc1.O=C1[O][Pt]2([NH]C3CCCCC3[NH]2)[O]C(=O)C1CCCCN1CCCCC1 (racemic) [Compound 9, 2-(4-(1-piperidyl)-butyl)-malonate•cis-(1,2-trans-cyclohexanediamine) platinum (II) tosilate]",LD50 vALUE,[1],0.725 mmol/kg
same,IC50,[5],8 µM
same,IC50,[6],2 µM
same,IC50,[7],50 µM
same,IC50,[8],14 µM
"[NH2][Pt]1([NH2])[O]C(=O)C(CCCCN2CCCCC2)C(=O)[O]1 [Compound 4, 2-(4-(1-piperidyl)-butyl)-malonate•cis-diamine platinum (II) phosphate]",LD50,[14],823 µmol/kg
same,solubility,[13]; water,> 300 mg/mL
"CC1CCCN1CCCCC1C(=O)[O][Pt]([NH2])([NH2])[O]C1=O (stereo not drawn) [Compound 10, 2-(4-(2-methyl-1-tetrahydropyrrolidinyl)-butyl)-malonate•cis-diamine platinum (II) phosphate]",LD50,[14],791 µmol/kg
same,IC50,[15],3 µM
same,solubility,[13]; water,> 300 mg/mL
